Data: patent US12486302B2, “Somatostatin receptor antagonist compounds and methods of using the same” (CDRD VENTURES INC., priority 2016, dated 2025)
Where a SMILES comes first, the peptide text is derived from it. Bridges are numbered along the chain shown (N, C = ends). [ ]: non-standard residue; d: D form. dPhe(4-CONH2) = NC(=O)c1ccc(C[C@@H](N)C(=O)O)cc1; NMePhe(4-Cl) = CN[C@@H](Cc1ccc(Cl)cc1)C(=O)O; Phe(4-Cl) = N[C@@H](Cc1ccc(Cl)cc1)C(=O)O; NMeY = CN[C@@H](Cc1ccc(O)cc1)C(=O)O; dNMeY = CN[C@H](Cc1ccc(O)cc1)C(=O)O; NMeT = CN[C@H](C(=O)O)[C@@H](C)O; NMeC = CN[C@@H](CS)C(=O)O; dNMeC = CN[C@H](CS)C(=O)O

Molecular target: somatostatin type 2 (SSTR2) receptors (Homo sapiens, UniProt P30874)
Test: PathHunter β-Arrestin assay, antagonist mode, SSTR2
Type: cell-based
Conditions: agonist challenge at EC80
Summary of the method: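 Cells co-expressing PK-tagged human receptor and EA-β-Arrestin were pre-incubated with compound, then challenged with agonist at EC80. β-Gal complementation read by chemiluminescence; % inhibition normalized to EC80 and vehicle controls at 10 concentrations (log 3 steps from 1 μM down to 5e-5 μM), fitted for IC50.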

Sequence of somatostatin type 2 (SSTR2) receptors (P30874 whole entry): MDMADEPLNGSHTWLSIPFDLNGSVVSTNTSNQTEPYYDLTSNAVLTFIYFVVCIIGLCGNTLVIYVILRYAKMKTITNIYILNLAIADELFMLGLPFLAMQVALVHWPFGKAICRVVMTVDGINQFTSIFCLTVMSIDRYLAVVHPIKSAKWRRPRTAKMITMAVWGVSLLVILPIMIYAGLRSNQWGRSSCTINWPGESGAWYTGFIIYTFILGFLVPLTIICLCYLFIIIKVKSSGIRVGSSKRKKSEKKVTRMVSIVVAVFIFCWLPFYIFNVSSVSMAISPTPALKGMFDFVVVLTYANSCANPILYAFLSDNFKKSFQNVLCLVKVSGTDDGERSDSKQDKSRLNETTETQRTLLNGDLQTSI

Compound: C[C@@H](O)[C@H]1C(=O)N[C@H](C(=O)N[C@H](Cc2ccc(O)cc2)C(N)=O)CSSC[C@@H](NC(=O)[C@@H](N)Cc2ccc(Cl)cc2)C(=O)N(C)[C@@H](Cc2ccc(O)cc2)C(=O)N[C@H](Cc2ccc(C(N)=O)cc2)C(=O)N[C@@H](CCCCN)C(=O)N1C [Compound 75, H-Cpa-[DCys-NMeTyr-DPhe(4-carbamoyl)-Lys-NMeThr-Cys]-DTyr-NH2] (H-[Phe(4-Cl)][dC][NMeY][dPhe(4-CONH2)]K[NMeT]C[dY]-NH2; disulfide 2-7)
- IC50: > 1 µM

Compound: C[C@@H](O)[C@@H]1NC(=O)[C@H](CCCCN)NC(=O)[C@@H](Cc2ccc(C(N)=O)cc2)NC(=O)[C@H](Cc2ccc(O)cc2)NC(=O)[C@H](NC(=O)[C@@H](N)Cc2ccc(Cl)cc2)CSSC[C@@H](C(=O)N[C@H](Cc2ccc(O)cc2)C(N)=O)N(C)C1=O [Compound 76, H-Cpa-[DCys- Tyr-DPhe (4-carbamoyl)- Lys-Thr-NMeCys]- DTyr-NH2] (H-[Phe(4-Cl)][dC]Y[dPhe(4-CONH2)]KT[NMeC][dY]-NH2; disulfide 2-7)
- IC50: 0.4 µM

Compound: CN[C@@H](Cc1ccc(Cl)cc1)C(=O)N[C@@H]1CSSC[C@@H](C(=O)N[C@H](Cc2ccc(O)cc2)C(N)=O)NC(=O)[C@H]([C@@H](C)O)NC(=O)[C@H](CCCCN)NC(=O)[C@@H](Cc2ccc(C(N)=O)cc2)NC(=O)[C@H](Cc2ccc(O)cc2)NC1=O [Compound 77, H—(N-Me)Cpa-cyclo[D-Cys-Tyr-D-Phe(4-carbamoyl)-Lys-Thr-Cys]-D-Tyr-NH2] (H-[NMePhe(4-Cl)][dC]Y[dPhe(4-CONH2)]KTC[dY]-NH2; disulfide 2-7)
- IC50: 0.00225 µM

Compound: C[C@@H](O)[C@@H]1NC(=O)[C@H](CCCCN)NC(=O)[C@@H](Cc2ccc(C(N)=O)cc2)NC(=O)[C@H](Cc2ccc(O)cc2)NC(=O)[C@H](N(C)C(=O)[C@@H](N)Cc2ccc(Cl)cc2)CSSC[C@@H](C(=O)N[C@H](Cc2ccc(O)cc2)C(N)=O)NC1=O [Compound 78, H-Cpa- [NMeDCys- Tyr-DPhe (4-carbamoyl)- Lys-Thr-Cys]- DTyr-NH2] (H-[Phe(4-Cl)][dNMeC]Y[dPhe(4-CONH2)]KTC[dY]-NH2; disulfide 2-7)
- IC50: 0.00679 µM

Compound: C[C@@H](O)[C@@H]1NC(=O)[C@H](CCCCN)NC(=O)[C@@H](Cc2ccc(C(N)=O)cc2)NC(=O)[C@H](Cc2ccc(O)cc2)NC(=O)[C@H](NC(=O)[C@@H](N)Cc2ccc(Cl)cc2)CSSC[C@@H](C(=O)N(C)[C@H](Cc2ccc(O)cc2)C(N)=O)NC1=O [Compound 79, H-Cpa-[DCys- Tyr-DPhe(4- carbamoyl)-Lys- Thr-Cys]- NMeDTyr-NH2] (H-[Phe(4-Cl)][dC]Y[dPhe(4-CONH2)]KTC[dNMeY]-NH2; disulfide 2-7)
- IC50: 0.0287 µM

Compound: CN[C@@H](Cc1ccc(Cl)cc1)C(=O)N[C@@H]1CSSC[C@@H](C(=O)N(C)[C@H](Cc2ccc(O)cc2)C(N)=O)NC(=O)[C@H]([C@@H](C)O)N(C)C(=O)[C@H](CCCCN)NC(=O)[C@@H](Cc2ccc(C(N)=O)cc2)NC(=O)[C@H](Cc2ccc(O)cc2)N(C)C1=O [Compound 80, H-NMeCpa-[DCys-NMeTyr-DPhe(4-carbamoyl)-Lys-NMeThr-Cys]-NMeTyr-NH2] (H-[NMePhe(4-Cl)][dC][NMeY][dPhe(4-CONH2)]K[NMeT]C[dNMeY]-NH2; disulfide 2-7)
- IC50: > 1 µM
